Results reported in patent US11530206B2, “Phenylaminopyrimidine amide autophagy inhibitors and methods of use thereof” (Deciphera Pharmaceuticals, LLC, priority 2019, dated 2022).

Experiments:
ULK kinase [1] = assay: pATG13 levels of mutant KRas MiaPaCa-2 cells after treatment with ULK inhibitors in combination with trametinib (ELISA); format: cell-based, human; details: MiaPaCa-2 pancreatic cancer cells, 250 nM trametinib, overnight, pS318-ATG13
How it was run: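 MiaPaCa-2 cells in DMEM with 10% FBS and 2.5% horse serum were pretreated with trametinib or DMSO, then given a test-compound dose response overnight at 37° C. Lysates were assayed for phospho-ATG13 by ELISA (A450 minus A540 background, blank-corrected). % phosphorylation was calculated relative to controls and fitted to IC50.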

ULK kinase [2] = assay: pATG13 levels of mutant BRAF A375 cells after treatment with ULK inhibitors in combination with trametinib (ELISA); format: cell-based, human; details: A375 malignant melanoma cells (mutant BRAF), 250 nM trametinib, overnight, pS318-ATG13
Procedure: A375 human malignant melanoma cancer cells (20000 cells/well) were added to a 96-well tissue-culture treated plate in 100 μL of pre-warmed DMEM medium supplemented with 10% characterized fetal bovine serum (Invitrogen, Carlsbad, Calif.), 100 units/mL penicillin G, and 100 μg/mL streptomycin and allowed to grow overnight at 37° C., 5% CO2, and 95% humidity. The following day, 100 μL of media containing trametinib or DMSO as a control was added to wells. […] A dose response of a test compound (0.5 μL per well) was added. DMSO (0.5 μL) was added to control wells. The plate was briefly shaken to mix wells and then incubated at 37° C. overnight. The next day, the media was aspirated and cells were washed with Dulbecco's Phosphate Buffered Saline (Gibco). Cells were lysed using MPER lysis buffer (Pierce, Rockford, Ill.) containing Halt Phosphatase and Protease Inhibitors (Pierce, Rockford, Ill.) and Phosphatase inhibitor cocktail 2 (Sigma, St. Louis, Mo.) at 4° C. for 10 minutes with shaking.
(§1) Plate wells were washed with ELISA wash buffer. Cell lysate was added to wells and incubated at room temperature for 2 hours. Plate wells were washed with ELISA wash buffer. […] Plate wells were washed with ELISA wash buffer. […] Plate wells were washed with ELISA wash buffer. […] The reaction was stopped with 2N Sulfuric Acid. The plate was analyzed at on a plate reader measuring absorbance at 450 nm and 540 nm (background). Signal was calculated by first subtracting the background absorbance at 540 nm from the absorbance at 450 nm for each well. Next, the background corrected absorbance at 450 nm from blank wells was subtracted from test wells. Data was compared to control wells to determine % ATG13 phosphorylation. GraphPad Prism was used to calculate IC50 values.

ULK kinase [3] = assay: pATG13 levels of mutant KRas A549 cells after treatment with ULK inhibitors in combination with trametinib (ELISA); format: cell-based, human; details: A549 (KRAS mutant) lung cancer cells, 250 nM trametinib, overnight, pS318-ATG13
How it was run: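 Lysates with phosphatase/protease inhibitors assayed by pATG13 ELISA, A450 minus A540 background and blank-corrected. % ATG13 phosphorylation versus DMSO controls fitted to IC50.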

ULK1 kinase [4] = target: T1, ULK1 kinase (Homo sapiens, UniProt O75385); assay: Biochemical assay for ULK1.2 (coupled pyruvate kinase/lactate dehydrogenase assay); details: 19 nM ULK1 (residues 1-314, His tag), myelin basic protein, 1 mM ATP
T1 construct: purchased Eurofins 14-959
T1 sequence (O75385 with tags, fused parts or gaps): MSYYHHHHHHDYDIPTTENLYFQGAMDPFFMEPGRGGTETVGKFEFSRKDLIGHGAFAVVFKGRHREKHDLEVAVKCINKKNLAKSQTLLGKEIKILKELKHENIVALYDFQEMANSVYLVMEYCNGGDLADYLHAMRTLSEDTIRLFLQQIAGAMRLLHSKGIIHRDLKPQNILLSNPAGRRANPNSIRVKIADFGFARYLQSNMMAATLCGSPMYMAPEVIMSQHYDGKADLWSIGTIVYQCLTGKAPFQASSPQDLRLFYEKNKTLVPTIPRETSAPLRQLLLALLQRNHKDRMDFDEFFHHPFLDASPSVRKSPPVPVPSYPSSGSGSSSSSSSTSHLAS
Procedure: Biochemical Assay for ULK1.2 (SEQ. ID NO: 1)
Inhibition of ULK1 was measured by adding serial diluted test compound (final assay concentration of 1% DMSO). A decrease in absorption at 340 nm was monitored continuously for 6 hours at 30° C. on a multi-mode microplate reader (BioTek). The reaction rate was calculated using the 2-3 h time frame. The reaction rate at each concentration of compound was converted to percent inhibition using controls (i.e. reaction with no test compound and reaction with a known inhibitor) and IC50 values were calculated by fitting a four-parameter sigmoidal curve to the data using Prism (GraphPad software).

ULK2 kinase = target: T2, ULK2 kinase (Homo sapiens, UniProt Q8IYT8); assay: Biochemical assay for ULK2 (coupled pyruvate kinase/lactate dehydrogenase assay); details: 9.7 nM ULK2 (residues 1-306, GST and His tag), myelin basic protein, 1 mM ATP; read-out: ULK2.2
T2 construct: purchased Eurofins 14-772
T2 sequence (Q8IYT8 with tags, fused parts or gaps): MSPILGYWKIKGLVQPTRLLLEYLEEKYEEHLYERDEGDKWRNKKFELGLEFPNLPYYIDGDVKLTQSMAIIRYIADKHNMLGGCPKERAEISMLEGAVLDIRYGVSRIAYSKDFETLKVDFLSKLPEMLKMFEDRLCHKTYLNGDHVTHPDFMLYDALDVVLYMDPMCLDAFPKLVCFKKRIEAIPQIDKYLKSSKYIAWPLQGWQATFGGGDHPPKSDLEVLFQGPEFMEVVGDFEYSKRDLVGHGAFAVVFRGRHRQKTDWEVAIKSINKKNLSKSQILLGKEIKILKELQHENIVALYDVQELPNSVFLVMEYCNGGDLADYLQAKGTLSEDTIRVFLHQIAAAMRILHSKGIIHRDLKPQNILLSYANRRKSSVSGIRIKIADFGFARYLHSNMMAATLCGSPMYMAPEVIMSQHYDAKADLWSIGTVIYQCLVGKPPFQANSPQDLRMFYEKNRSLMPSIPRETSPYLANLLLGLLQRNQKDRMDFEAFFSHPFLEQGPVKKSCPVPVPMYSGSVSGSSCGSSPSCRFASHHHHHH
Procedure: Example 132. Biochemical Assay for ULK2 (SEQ. ID NO: 3)
Activity of ULK2 kinase was determined spectroscopically using a coupled pyruvate kinase/lactate dehydrogenase assay that continuously monitors the ATP hydrolysis-dependent oxidation of NADH (e.g., Schindler et al. Science (2000) 289: 1938-1942). Assays were conducted in 384-well plates (100 uL final volume) using 9.7 nM ULK2 (Eurofins CAT #14-772), 0.25 mg/mL myelin basic protein, 1.5 units pyruvate kinase, 2.1 units lactate dehydrogenase, 1 mM phosphoenol pyruvate, 0.28 mM NADH and 1 mM ATP in assay buffer (100 mM Tris, pH 7.5, 15 mM MgCl2, 0.5 mM DTT, 0.1% octyl-glucoside, 0.002% (w/v) BSA, and 0.002% Triton X-100). Inhibition of ULK2 was measured by adding serial diluted test compound (final assay concentration of 1% DMSO). A decrease in absorption at 340 nm was monitored continuously for 6 hours at 30° C. on a multi-mode microplate reader (BioTek). The reaction rate was calculated using the 2-3 h time frame. The reaction rate at each concentration of compound was converted to percent inhibition using controls (i.e. reaction with no test compound and reaction with a known inhibitor) and IC50 values were calculated by fitting a four-parameter sigmoidal curve to the data using Prism (GraphPad software).

ULK kinase [5] = assay: pATG13 levels of mutant KRas HCT-116 cells after treatment with ULK inhibitors in combination with trametinib (ELISA); format: cell-based, human; details: HCT-116 colon cancer cells, 250 nM trametinib, overnight, pS318-ATG13
Procedure: The following day, 10 μL of media containing trametinib or DMSO as a control was added to wells. […] A dose response of a test compound (0.6 μL per well) was added. DMSO (0.6 μL) was added to control wells. The plate was briefly shaken to mix wells and then incubated at 37° C. overnight. The next day, the media was aspirated and cells were washed with Dulbecco's Phosphate Buffered Saline (Gibco). Cells were lysed using MPER lysis buffer (Pierce, Rockford, Ill.) containing Halt Phosphatase and Protease Inhibitors (Pierce, Rockford, Ill.) and Phosphatase inhibitor cocktail 2 (Sigma, St. Louis, Mo.) at 4° C. for 10 minutes with shaking.
as §1

ULK1 kinase [6] = target: T3, ULK1 kinase (Homo sapiens, UniProt O75385, E37A/K38A); assay: Biochemical assay for ULK1.3 (coupled pyruvate kinase/lactate dehydrogenase assay, peptide substrate); details: 0.1 nM ULK1 (residues 1-283), 1 mM ATP
T3 construct: purchased Beryllium
T3 sequence (O75385 1-283 E37A/K38A): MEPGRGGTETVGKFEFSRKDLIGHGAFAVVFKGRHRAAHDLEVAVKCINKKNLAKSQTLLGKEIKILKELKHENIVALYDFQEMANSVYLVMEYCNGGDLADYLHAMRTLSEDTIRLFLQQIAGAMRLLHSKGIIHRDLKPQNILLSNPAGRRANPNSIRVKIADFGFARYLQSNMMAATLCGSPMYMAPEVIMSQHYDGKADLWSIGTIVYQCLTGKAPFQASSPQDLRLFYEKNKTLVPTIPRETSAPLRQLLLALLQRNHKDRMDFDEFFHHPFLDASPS
How it was run: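 ULK1.3 activity was followed by continuous decrease in 340 nm absorbance over 6 h at 30 °C with 1% DMSO final. Rates were taken from the 2–3 h window and converted to percent inhibition against no-compound and known-inhibitor controls. IC50 values came from curve fitting.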

LRRK2 kinase = target: T4, LRRK2 kinase (Homo sapiens, UniProt Q5S007); assay: Biochemical assay for LRRK2 (coupled pyruvate kinase/lactate dehydrogenase assay); details: 26.4 nM LRRK2 (residues 970-2528), peptide substrate, 1 mM ATP
T4 construct: purchased Thermo Fisher
T4 sequence (Q5S007 with tags, fused parts or gaps): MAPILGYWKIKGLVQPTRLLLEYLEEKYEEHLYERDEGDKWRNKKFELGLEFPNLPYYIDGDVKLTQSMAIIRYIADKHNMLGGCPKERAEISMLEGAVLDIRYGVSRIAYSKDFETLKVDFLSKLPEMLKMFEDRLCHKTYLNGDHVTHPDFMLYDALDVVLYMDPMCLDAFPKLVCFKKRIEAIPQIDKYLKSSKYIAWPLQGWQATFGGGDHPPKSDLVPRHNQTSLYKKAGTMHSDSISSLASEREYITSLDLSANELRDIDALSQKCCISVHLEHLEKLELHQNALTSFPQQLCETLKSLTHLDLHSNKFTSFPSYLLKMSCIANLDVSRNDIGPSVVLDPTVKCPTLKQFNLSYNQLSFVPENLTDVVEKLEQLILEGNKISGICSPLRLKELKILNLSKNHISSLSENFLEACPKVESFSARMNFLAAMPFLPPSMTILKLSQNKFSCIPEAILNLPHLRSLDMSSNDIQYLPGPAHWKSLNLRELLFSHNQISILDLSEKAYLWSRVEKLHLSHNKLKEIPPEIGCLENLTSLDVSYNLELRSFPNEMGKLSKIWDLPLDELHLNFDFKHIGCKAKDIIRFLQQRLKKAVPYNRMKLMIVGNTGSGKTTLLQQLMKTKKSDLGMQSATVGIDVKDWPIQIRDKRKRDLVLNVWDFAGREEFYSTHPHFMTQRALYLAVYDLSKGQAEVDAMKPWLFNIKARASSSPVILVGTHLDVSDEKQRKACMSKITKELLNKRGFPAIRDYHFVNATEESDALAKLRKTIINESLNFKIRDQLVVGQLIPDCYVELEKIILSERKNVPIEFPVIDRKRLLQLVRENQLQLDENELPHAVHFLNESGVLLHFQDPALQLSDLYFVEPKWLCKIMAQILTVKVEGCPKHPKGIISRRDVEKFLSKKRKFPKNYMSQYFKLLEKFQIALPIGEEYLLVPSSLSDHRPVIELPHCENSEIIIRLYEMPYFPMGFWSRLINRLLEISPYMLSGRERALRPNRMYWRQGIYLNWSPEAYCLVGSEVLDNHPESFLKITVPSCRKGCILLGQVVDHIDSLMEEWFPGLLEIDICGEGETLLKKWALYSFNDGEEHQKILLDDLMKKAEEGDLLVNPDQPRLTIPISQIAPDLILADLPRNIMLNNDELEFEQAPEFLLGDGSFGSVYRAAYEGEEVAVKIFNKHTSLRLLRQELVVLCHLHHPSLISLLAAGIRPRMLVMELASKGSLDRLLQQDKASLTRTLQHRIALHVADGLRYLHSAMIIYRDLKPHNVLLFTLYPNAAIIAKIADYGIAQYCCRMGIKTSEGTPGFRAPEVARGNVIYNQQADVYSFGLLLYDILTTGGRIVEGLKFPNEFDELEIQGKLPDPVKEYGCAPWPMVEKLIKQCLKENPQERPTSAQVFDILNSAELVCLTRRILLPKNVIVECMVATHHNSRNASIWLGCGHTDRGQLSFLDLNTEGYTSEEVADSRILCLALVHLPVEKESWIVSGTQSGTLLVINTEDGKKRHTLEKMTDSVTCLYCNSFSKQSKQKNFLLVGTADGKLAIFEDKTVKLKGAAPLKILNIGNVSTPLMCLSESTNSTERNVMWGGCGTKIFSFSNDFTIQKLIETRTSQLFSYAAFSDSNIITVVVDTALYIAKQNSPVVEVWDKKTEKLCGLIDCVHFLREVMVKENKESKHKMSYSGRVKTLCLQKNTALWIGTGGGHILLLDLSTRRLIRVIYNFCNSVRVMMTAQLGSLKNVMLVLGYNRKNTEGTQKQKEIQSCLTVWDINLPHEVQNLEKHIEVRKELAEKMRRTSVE
How it was run: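 Recombinant LRRK2 (26.4 nM) with 0.1 mM peptide substrate and 1 mM ATP in Tris pH 7.5/MgCl2 buffer; ADP production coupled via PK/LDH to NADH oxidation, A340 read continuously 6 h at 30 °C. Rates from 2–3 h window converted to % inhibition versus no-compound and reference-inhibitor controls; IC50 fitted.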

Row | Compound | IC50 (ULK kinase [1]) [nM] | IC50 (ULK kinase [2]) [nM] | IC50 (ULK kinase [3]) [nM] | IC50 (ULK1 kinase [4]) [nM] | IC50 (ULK2 kinase) [nM] | IC50 (ULK kinase [5]) [nM] | IC50 (ULK1 kinase [6]) [nM] | IC50 (LRRK2 kinase) [nM]
1 | CCc1cc(N2CCN(C)CC2)ccc1Nc1ncc(C(F)(F)F)c(NCCCN2CCCCC2=O)n1 [Example 11] | 10 to 100 | 10 to 100 | 100 to 300 | 1 to 25 | 1 to 25 | 10 to 100 | – | –
2 | Cc1cc(N2CCN(C)CC2)ccc1Nc1ncc(C(F)(F)F)c(NCCCN2CCCCC2=O)n1 [Example 20] | 100 to 300 | – | 300 to 600 | 1 to 25 | 25 to 100 | 100 to 300 | – | –
3 | CCc1cc(N2CCN(C)CC2)ccc1Nc1ncc(Br)c(NCCCN2CCCCC2=O)n1 [Example 23, 1-(3-((5-bromo-2-((2-ethyl-4-(4-methylpiperazin-1-yl)phenyl)amino)pyrimidin-4-yl)amino)propyl)piperidin-2-one] | 10 to 100 | 10 to 100 | 10 to 100 | 25 to 100 | 100 to 500 | 10 to 100 | – | –
4 | Cc1cc(N2CCNCC2)ccc1Nc1ncc(C(F)(F)F)c(NCCCN2CCCOC2=O)n1 [Example 37] | 10 to 100 | 300 to 600 | 100 to 300 | – | – | – | 1 to 25 | 100 to 300
5 | CN1CCN(c2ccc(Nc3ncc(C(F)(F)F)c(NCCCN4CCOCC4=O)n3)c(C3CC3)c2)CC1 [Example 47] | 300 to 600 | 300 to 600 | 100 to 300 | – | – | 100 to 300 | 25 to 100 | 100 to 300
6 | CCc1cc(N2CCN(C)CC2)ccc1Nc1ncc(C(F)(F)F)c(NCCCN2CCCOCC2=O)n1 [Example 54] | 10 to 100 | – | 10 to 100 | 1 to 25 | 25 to 100 | 10 to 100 | – | –
7 | CCc1cc(N2CCN(C)CC2)ccc1Nc1ncc(Cl)c(NCCCN2CCCOCC2=O)n1 [Example 58] | 10 to 100 | – | 100 to 300 | 100 to 500 | > 500 | 10 to 100 | – | 100 to 300
8 | CCN1CCN(c2ccc(Nc3ncc(C(F)(F)F)c(NCCCN4CCCOCC4=O)n3)c(C(C)C)c2)CC1 [Example 60] | 100 to 300 | 300 to 600 | 100 to 300 | 1 to 25 | – | 10 to 100 | – | –
9 | CCc1cc(N2CC3CCC(C2)N3C)ccc1Nc1ncc(C(F)(F)F)c(NCCCN2CCCOC2=O)n1 [Example 69] | 10 to 100 | – | 10 to 100 | – | – | 10 to 100 | 1 to 25 | 300 to 600
10 | CCN1CCN(c2ccc(Nc3ncc(C(F)(F)F)c(NCCCN4CCOCCC4=O)n3)c(C(C)C)c2)CC1 [Example 73] | 100 to 300 | 10 to 100 | 100 to 300 | 1 to 25 | 100 to 500 | 10 to 100 | – | –
11 | Cc1cc(N2CCNCC2)ccc1Nc1ncc(C(F)(F)F)c(NCCCN2CCOCCC2=O)n1 [Example 75] | 10 to 100 | 100 to 300 | 100 to 300 | – | – | 100 to 300 | 1 to 25 | –
12 | O=C1CCOCCN1CCCNc1nc(Nc2ccc(N3CCNCC3)cc2C2CC2)ncc1C(F)(F)F [Example 85] | 10 to 100 | 100 to 300 | 10 to 100 | – | – | 100 to 300 | 1 to 25 | –
13 | CCc1cc(N2CCN3CCC[C@@H]3C2)ccc1Nc1ncc(C(F)(F)F)c(NCCCN2CCOCCC2=O)n1 [Example 105] | 10 to 100 | – | 10 to 100 | – | – | 10 to 100 | 1 to 25 | 1 to 100
14 | CCc1cc(N2CCN3CCC[C@@H]3C2)ccc1Nc1ncc(C(F)(F)F)c(NCCCN2CCCOC2=O)n1 [Example 106] | 10 to 100 | – | 10 to 100 | – | – | 10 to 100 | 1 to 25 | 100 to 300
